Measurements reported in US20210323918A1, “COMPOSITIONS AND METHODS FOR SUPPRESSING AND/OR TREATING A GROWTH RELATED DISEASE AND/OR A CLINICAL CONDITION THEREOF” (CK Biotech Inc., priority 2018, published 2021).

How the values were obtained:
GSK3β (human) = GSK3β (human) (Homo sapiens, UniProt P49841); assay: GSK3β kinase assay; format: biochemical; details: from dose-response curve, FIG. 4C; read-out: IC50, in vitro GSK3β activity
Description: GSK3β kinase assay. GSK3β (human) was incubated with 8 mM MOPS (pH 7.0), 0.2 mM EDTA, 20 μM […](p) EDEEE (phospho-GS2 peptide) (SEQ ID NO. 37), 10 mM Mg acetate, and [γ-33P-ATP] (specific activity approx. 500 cpm/pmol, concentration as required). The reaction was initiated by the addition of the Mg-ATP mixture. After incubation for 40 minutes at room temperature, the reaction was stopped by addition of 3% phosphoric acid solution. 10 μl of the reaction was then spatted onto a P30 filtermat and washed three times for 5 minutes in 50 mM phosphoric acid and once in methanol prior to drying and scintillation counting.

CXXC5-DVL interaction = target: T1, CXXC5-DVL interaction (Homo sapiens, UniProt O14640); assay: In vitro CXXC5-DVL binding assay (FITC-tagged PTD-DBMP on DVL PDZ domain); details: from dose-response curve, FIG. 4B
T1 construct: 5 mg/ml purified DVL PDZ domain was incubated in each well
T1 sequence (O14640 251-323 limits assumed): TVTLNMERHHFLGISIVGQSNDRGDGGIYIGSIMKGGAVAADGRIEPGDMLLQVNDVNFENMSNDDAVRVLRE

[1] = tested on: growth plates of proximal tibiae of mice; assay: Growth plate senescence and longitudinal bone growth in mice; format: in vivo
Description: Animals. Cxxc5^−/− mice were established in a previous study. See e.g., Kim H. Y. et al. (2015), CXXC5 is a negative feedback regulator of the Wnt/beta-catenin pathway involved in osteoblast differentiation. CELL DEATH DIFFER 22: 912-920. To manipulate growth plate senescence by estrogen, 3-week-old […] Cxxc5^−/− male mice received weekly intramuscular (i.m.) injections of either 70 μg/kg estradiol (E2) cypionate (Sigma-Aldrich) or vehicle (cottonseed oil) for 3 weeks. To investigate the effects of KY19382 treatment on longitudinal bone growth, C57BL/6 male mice were purchased from KOATECH (Gyeonggido, Korea). KY19382 (0.1 ing/kg) was administered daily by intraperitoneal (i.p.) injection to 3- and 7-week-old mice for 2 weeks or to 3-week-old mice for 10 weeks. For BrdU labeling experiments, mice were i.p. injected with 50 mg/kg BrdU (Sigma-Aldrich) before 24 hours to sacrifice. All animal procedures were approved by the Institutional Animal Care and Use Committee (IACUC) of Yonsei University (Korea) and conducted based on the guidelines of the Korean Food and Drug Administration.
Radiographic and histochemical analyses. Plain radiographs were taken using an X-ray apparatus (KODAK DXS 4000 Pro SYSTEM; Carestream Health Rochester, N.Y.). The tissues were fixed in 4% paraformaldehyde (PFA), decalcified in 10% EDTA (pH 7.4), dehydrated, embedded in paraffin, and sectioned to 4 μm thickness (Leica Microsystems, Wetzlar, Germany). The tissues sections were rehydrated and used for further analyses including H&E, TRAP, and itnmunohistochemical (IHC) staining. To perform IHC staining, the sections were incubated with citrate buffer (pH 6.0) at 80° C. for 30 minutes, with 0.05% trypsin working solution (pH 7.8) for 30 minutes at 37° C., or with 0.5% pepsin (Sigma-Aldrich) for 15 minutes at 37° C. Then, the sections were blocked with 5% normal goat serum (NGS; Vector Laboratories, Burlingame, Calif.) and 0.3% triton-x-100 in PBS for 1 hour at room temperature. For 3,3′-diaminobensidine (DAB) staining, the sections were incubated with 0.345% H2O2 for 15 minutes. Before incubating the sections with mouse primary antibody, mouse IgG was blocked using a M.O.M kit (Vector Laboratories). The sections were incubated at 4° C. overnight with the following primary antibodies: anti-β-catenin (BD Bioscience, San Jose, Calif., #610154; 1:50), anti-CXXC5 l (1:200; lab-made) anti-BrdU (DAKO, Carpinteria, Calif., M0744; 1:200), anti-COL2A1 (ThermoFisher Scientific, MA, PAS-11462; 1:100), anti-Ki67 (Abcam, Cambridge, UK, ab15580; 1:200), and anti-RUNX2 (Abeam, ab23981; 1:200). Then, the sections were incubated at room temperature for 1 hour with biotinylated anti-mouse (Vector Laboratories, BA-9200; 1:200) or biotinylated anti-rabbit (Vector Laboratories, BA-1000; 1:200) secondary antibodies. The sections were then incubated in avidin-biotin complex solutions (Vector Laboratories), stained with a DAB kit (Vector Laboratories) for 3-30 minutes, and counterstained with methyl green (Sigma-Aldrich). All incubations were conducted in humid chambers. […] For fluorescence staining, the sections were incubated with primary antibody at 4° C. overnight, followed by incubation with anti-mouse Alexa Fluor 488 (ThermoFisher Scientific, A11008; 1:200) or anti-rabbit Alex Fluor 555 (ThermoFisher Scientific, A21428; 1:200) secondary antibodies at room temperature for 1 hour. The sections were then counterstained with DAPI (Sigma-Aldrich) for 5 minutes and mounted in Gel/Mount media (Biomeda Corporation). All incubations were conducted in dark humid chambers. The fluorescent signals were visualized using a LSM700 META confocal microscope (Carl Zeiss Inc., Thornwood, N.Y.) at excitation wavelengths of 488 nm (Alexa Fluor 488), 543 nm (Alexa Fluor 555), and 405 nm (DAPI).
Immunoblot analyses. […] Protein samples were separated on a 8-12% sodium dodecylsulfate polyacrylamide gel electrophoresis (SDS-PAGE) and transferred to a nitrocellulose membrane (Whatman). […]

[2] = tested on: Tibial organ cultures (E15.5); assay: Tibial organ culture (ex vivo); parameters: species or system mice; details: 100 nM for 6 days
Description: Tibial organ culture. Tibiae were isolated from embryonic day 15.5 (e15.5) mice and cultured for 6 days in phenol red-free a-MEM (Gibco) containing ascorbic acid, β-glycerophosphate, BSA, L-glutamine, and penicillin-streptomycin, as previously described (Gillespie et al, 2011). After dissection, tibiae were incubated in medium overnight and then treated with E2 (Sigma-Aldrich). Media and reagents were changed every 48 hours. Tibial images were captured using a SMZ-745T microscope (Nikon). Tibial length was measured prior to treatment and after 6 days in culture. The samples were then prepared for paraffin embedding, sectioned, and analyzed by H&E and IHC staining.

[3] = 3-week-old mice, 0.1 mg/kg daily for 2 weeks
[4] = 7-week-old mice, 0.1 mg/kg i.p. daily for 2 weeks

Sequence of GSK3β (human) (P49841 whole entry): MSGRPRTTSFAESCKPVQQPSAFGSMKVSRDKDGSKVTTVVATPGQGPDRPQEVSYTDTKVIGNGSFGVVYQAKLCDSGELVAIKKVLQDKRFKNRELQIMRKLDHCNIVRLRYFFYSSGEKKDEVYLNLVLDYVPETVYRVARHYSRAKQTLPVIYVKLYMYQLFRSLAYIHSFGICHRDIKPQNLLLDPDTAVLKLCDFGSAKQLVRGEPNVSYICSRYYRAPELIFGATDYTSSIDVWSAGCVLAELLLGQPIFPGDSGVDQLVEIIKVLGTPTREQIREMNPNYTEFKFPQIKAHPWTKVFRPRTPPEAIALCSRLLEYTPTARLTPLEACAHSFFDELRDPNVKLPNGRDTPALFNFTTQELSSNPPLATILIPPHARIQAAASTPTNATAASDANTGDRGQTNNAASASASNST

Row | Compound | IC50 (GSK3β (human)) | IC50 (CXXC5-DVL interaction) | length of tibiae ([1]; 0.1 mg/kg daily for 10 weeks, mice from 3 to 13 weeks of age, vs vehicle) | height of each growth plate zone and BrdU-positive cells [1, 3] | β-catenin-expressing chondrocytes [1, 3] | number of TRAP-positive foci in the growth plate/trabecular interface ([1]; 3-week-old mice, 0.1 mg/kg daily for 2 weeks, vs vehicle) | nuclear β-catenin in growth plate chondrocytes [1, 4] | numbers of proliferative and hypertrophic chondrocytes per column (BrdU- and RUNX2-positive cells) [1, 4] | total growth plate height, monitored by COL2A1 immunostaining [1, 4] | β-catenin and chondrogenic markers (COL2A1, RUNX2, MMP13) in the growth plate, immunoblot [1, 4] | TRAP-positive foci ([1]; mice treated from 7 to 9 weeks of age, 0.1 mg/kg, vs vehicle) | tibial length [2] | structural senescence of the tibial growth plate ([1]; Cxxc5−/− mice, E2 cypionate 70 μg/kg i.m. once a week for 3 weeks)
1 | CO/N=C1/C(=C2/C(=O)Nc3cc(Cl)c(Cl)cc32)Nc2ccccc21 [KY19382, 5,6-dichloroindirubin-3′-methoxime] | 10 nM | 19 nM | significantly increased | elevated | increased | not different | dramatically increased | increased numbers | significantly increased | increased | elevated | – | –
2 | 17β-estradiol [Compound E2] | – | – | – | – | – | – | – | – | – | – | – | reduced | hardly observed
